Test results: ChEMBL document CHEMBL4145686, “Discovery of a Potent and Selective Steroidal Glucocorticoid Receptor Antagonist (ORIC-101)” (J Med Chem, 2018)

Key:
Glucocorticoid receptor [1] = target: T1, Glucocorticoid receptor (Homo sapiens, UniProt P04150); assay: Antagonist activity at human GR expressed in CHO-K1 cells assessed as reduction in dexamethasone-induced response incubated for 20 hrs by luciferase reporter gene assay; assay type: cell-based
T1 sequence (P04150 whole entry): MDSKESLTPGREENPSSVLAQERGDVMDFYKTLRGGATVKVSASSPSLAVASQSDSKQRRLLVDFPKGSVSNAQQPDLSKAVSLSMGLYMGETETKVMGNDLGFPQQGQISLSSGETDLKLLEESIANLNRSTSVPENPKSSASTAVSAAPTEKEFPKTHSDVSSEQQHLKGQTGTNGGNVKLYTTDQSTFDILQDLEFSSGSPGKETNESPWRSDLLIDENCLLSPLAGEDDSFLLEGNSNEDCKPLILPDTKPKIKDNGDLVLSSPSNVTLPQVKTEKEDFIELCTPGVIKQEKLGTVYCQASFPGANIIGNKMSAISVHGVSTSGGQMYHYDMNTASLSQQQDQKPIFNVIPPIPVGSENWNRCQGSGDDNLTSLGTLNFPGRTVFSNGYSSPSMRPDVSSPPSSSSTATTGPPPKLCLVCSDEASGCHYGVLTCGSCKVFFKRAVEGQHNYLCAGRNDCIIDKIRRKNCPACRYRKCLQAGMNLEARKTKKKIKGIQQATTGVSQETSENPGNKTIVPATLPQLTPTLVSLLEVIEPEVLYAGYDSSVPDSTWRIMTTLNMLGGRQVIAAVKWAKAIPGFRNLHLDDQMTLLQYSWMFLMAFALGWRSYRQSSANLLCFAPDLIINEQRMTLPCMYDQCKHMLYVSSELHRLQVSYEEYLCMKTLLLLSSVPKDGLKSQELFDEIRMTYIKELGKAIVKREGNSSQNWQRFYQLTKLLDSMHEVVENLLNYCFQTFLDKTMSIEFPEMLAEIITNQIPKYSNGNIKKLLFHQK

Glucocorticoid receptor [2] = target: T1, Glucocorticoid receptor; assay: Agonist activity at human GR expressed in CHO-K1 cells incubated for 20 hrs by luciferase reporter gene assay; assay type: cell-based
[3] = target: T2, glucocorticoid receptor (GR) (Homo sapiens, UniProt P04150); assay: Agonist activity at human GR expressed in CHO-K1 cells incubated for 20 hrs by luciferase reporter gene assay relative to dexamethasone; assay type: cell-based; settings: CHO-K1 cells expressing human GR
T2 sequence (P04150 whole entry): T1 sequence (P04150 whole entry)

Androgen receptor = target: T3, Androgen receptor (Homo sapiens, UniProt P10275); assay: Agonist activity at AR (unknown origin) expressed in human LNCaP cells incubated for 20 hrs by luciferase reporter gene assay; assay type: cell-based
T3 sequence (P10275 whole entry): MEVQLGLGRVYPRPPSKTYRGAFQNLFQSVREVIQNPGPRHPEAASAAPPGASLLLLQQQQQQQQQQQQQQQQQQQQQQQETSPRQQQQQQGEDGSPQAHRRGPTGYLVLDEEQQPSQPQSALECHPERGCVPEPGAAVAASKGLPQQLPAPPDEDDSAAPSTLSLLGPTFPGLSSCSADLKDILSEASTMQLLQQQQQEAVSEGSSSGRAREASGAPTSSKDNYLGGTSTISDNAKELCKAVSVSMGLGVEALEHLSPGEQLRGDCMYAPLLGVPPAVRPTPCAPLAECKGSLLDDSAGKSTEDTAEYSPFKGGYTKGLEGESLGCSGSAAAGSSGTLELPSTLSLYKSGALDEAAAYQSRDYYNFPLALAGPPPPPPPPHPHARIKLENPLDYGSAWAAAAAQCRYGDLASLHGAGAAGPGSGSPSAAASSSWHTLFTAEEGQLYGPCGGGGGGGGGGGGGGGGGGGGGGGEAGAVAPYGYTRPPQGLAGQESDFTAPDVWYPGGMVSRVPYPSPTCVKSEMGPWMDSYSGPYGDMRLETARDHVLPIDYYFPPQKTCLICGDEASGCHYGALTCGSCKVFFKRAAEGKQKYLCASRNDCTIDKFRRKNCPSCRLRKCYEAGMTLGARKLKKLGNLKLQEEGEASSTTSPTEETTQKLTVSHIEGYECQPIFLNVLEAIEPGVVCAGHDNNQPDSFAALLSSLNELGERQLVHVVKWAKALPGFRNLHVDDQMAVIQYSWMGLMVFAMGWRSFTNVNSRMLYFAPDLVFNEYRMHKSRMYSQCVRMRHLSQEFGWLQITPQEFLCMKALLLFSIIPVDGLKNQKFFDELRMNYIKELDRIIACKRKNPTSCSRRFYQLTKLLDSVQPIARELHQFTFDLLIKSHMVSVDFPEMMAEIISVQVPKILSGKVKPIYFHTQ

androgen receptor (AR) = target: T4, androgen receptor (AR) (Homo sapiens, UniProt P10275); assay: Agonist activity at AR (unknown origin) expressed in human LNCaP cells incubated for 20 hrs by luciferase reporter gene assay relative to mifepristone; assay type: cell-based; settings: human LNCaP cells expressing AR
T4 sequence (P10275 whole entry): T3 sequence (P10275 whole entry)

[4] = Clearance in rat at 0.5 mg/kg, iv; assay type: ADME, organism-based; settings: in vivo
[5] = Volume of distribution at steady state in rat at 0.5 mg/kg, iv; assay type: ADME, organism-based; settings: in vivo, read-out: Vdss
[6] = Half life in rat at 0.5 mg/kg, iv; assay type: ADME, organism-based; settings: in vivo
[7] = Oral bioavailability in rat at 5 mg/kg; assay type: ADME, organism-based; settings: in vivo
[8] = Cmax in rat at 5 mg/kg, po; assay type: ADME, organism-based; design: dose 5 mg/kg, route oral; settings: in vivo
[9] = AUC in rat at 5 mg/kg, po; assay type: ADME, organism-based; settings: in vivo

SMILES	IC50 (Glucocorticoid receptor [1]) [nM]	EC50 (Glucocorticoid receptor [2]) [nM]	Emax at 20 h [3] [%]	EC50 (Androgen receptor) [nM]	Emax at 20 h (androgen receptor (AR)) [%]	clearance [4] [mL/min/kg]	Vd [5] [L/kg]	half-life [6] [h]	bioavailability [7] [%]	Cmax [8] [ng/mL]	AUC [9] [ng·h/mL]
COc1ccc([C@H]2C[C@@]3(C)[C@@H](CC[C@@]3(O)C#CC(C)(C)C)[C@@H]3CCC4=CC(=O)CCC4=C32)cc1	16.6	> 2500	1.1	> 2500	9.8						
Cc1cc([C@H]2C[C@@]3(C)[C@@H](CC[C@@]3(O)C#CC(C)(C)C)[C@@H]3CCC4=CC(=O)CCC4=C32)ccc1N(C)C	28	> 2500	1.2	> 2500	17						
CC#C[C@]1(O)CC[C@H]2[C@@H]3CCC4=CC(=O)CCC4=C3[C@@H](c3cccc(N(C)C)c3)C[C@@]21C	64	> 2500	1.5	> 2500	5.8						
CC#C[C@]1(O)CC[C@H]2[C@@H]3CCC4=CC(=O)CCC4=C3[C@@H](C3CCCCC3)C[C@@]21C	18.1	> 2500	9.3	> 2500	26						
CC(C)N(C)c1ccc([C@H]2C[C@@]3(C)[C@@H](CC[C@@]3(O)C#CC(C)(C)C)[C@@H]3CCC4=CC(=O)CCC4=C32)cc1	43	> 2500	1.7	> 2500	8.2	66.7	4.7	1.5	23	59	290
CN(C)c1cccc([C@H]2C[C@@]3(C)[C@@H](CC[C@@]3(O)C#CC(C)(C)C)[C@@H]3CCC4=CC(=O)CCC4=C32)c1	205	> 2500	1.3	> 2500	7.5						
COC(C)(C)C#C[C@]1(O)CC[C@H]2[C@@H]3CCC4=CC(=O)CC[C@@H]4[C@H]3[C@@H](c3ccc(N(C)C)cc3)C[C@@]21C	14.6	> 2500	1.7	> 2500	10.6	83.3	7.2	2.4	54	295	544
CN(C)c1c(F)cc([C@H]2C[C@@]3(C)[C@@H](CC[C@@]3(O)C#CC(C)(C)C)[C@@H]3CCC4=CC(=O)CCC4=C32)cc1F	43	> 2500	1.3	> 2500	8.8						
Cc1ccc([C@H]2C[C@@]3(C)[C@@H](CC[C@@]3(O)C#CC(C)(C)C)[C@@H]3CCC4=CC(=O)CCC4=C32)cc1	16.1	> 2500	1.5	> 2500	16						
CC(C)C#C[C@]1(O)CC[C@H]2[C@@H]3CCC4=CC(=O)CCC4=C3[C@@H](c3ccc(N(C)C)cc3)C[C@@]21C	26	> 2500	1.8	> 2500	50						
COc1cc([C@H]2C[C@@]3(C)[C@@H](CC[C@@]3(O)C#CC(C)(C)C)[C@@H]3CCC4=CC(=O)CCC4=C32)ccc1N(C)C	48	> 2500	1	> 2500	5.7						
CC(C)(C)C#C[C@]1(O)CC[C@H]2[C@@H]3CCC4=CC(=O)CCC4=C3[C@@H](c3ccc(N4CCS(=O)(=O)CC4)cc3)C[C@@]21C	16.7	> 2500	1.8	> 2500	23						
CC#C[C@]1(O)CC[C@H]2[C@@H]3CCC4=CC(=O)CCC4=C3[C@@H](CC)C[C@@]21C	> 5000	57	36	> 2500	47						
CN(C)c1ccc([C@H]2C[C@@]3(C)[C@@H](CC[C@@]3(O)C#CC(C)(C)C)[C@@H]3CCC4=CC(=O)CC[C@@H]4[C@H]32)cc1	5.6	> 2500	2.2	224	22						
CCc1ccc([C@H]2C[C@@]3(C)[C@@H](CC[C@@]3(O)C#CC(C)(C)C)[C@@H]3CCC4=CC(=O)CCC4=C32)cc1	17.5	> 2500	1.5	> 2500	20	6.83	1.7	3.4	0		

Other lines, results leading:

IC50 (Glucocorticoid receptor [1]) [nM]	EC50 (Glucocorticoid receptor [2]) [nM]	Emax at 20 h [3] [%]	EC50 (Androgen receptor) [nM]	Emax at 20 h (androgen receptor (AR)) [%]	clearance [4] [mL/min/kg]	Vd [5] [L/kg]	half-life [6] [h]	bioavailability [7] [%]	Cmax [8] [ng/mL]	AUC [9] [ng·h/mL]	SMILES
8.5	> 2500	2.1	30	101							CCC#C[C@]1(O)CC[C@H]2[C@@H]3CCC4=CC(=O)CCC4=C3[C@@H](c3ccc(N(C)C)cc3)C[C@@]21C
12.4	> 2500	1.3	> 2500	11							CN(C)c1cc(F)c([C@H]2C[C@@]3(C)[C@@H](CC[C@@]3(O)C#CC(C)(C)C)[C@@H]3CCC4=CC(=O)CCC4=C32)c(F)c1
11.2	> 2500	2.4	54	117							CN(C)c1ccc([C@H]2C[C@@]3(C)[C@@H](CC[C@@]3(O)C#CC(F)(F)F)[C@@H]3CCC4=CC(=O)CCC4=C32)cc1
14.2	17.4	7	> 2500	27							CC#C[C@]1(O)CC[C@H]2[C@@H]3CCC4=CC(=O)CCC4=C3[C@@H](c3ccccc3)C[C@@]21C
16	> 2500	1.5	> 2500	25							CC(C)c1ccc([C@H]2C[C@@]3(C)[C@@H](CC[C@@]3(O)C#CC(C)(C)C)[C@@H]3CCC4=CC(=O)CCC4=C32)cc1
13.3	> 2500	1.5	> 2500	18.7							CC(C)(C)C#C[C@]1(O)CC[C@H]2[C@@H]3CCC4=CC(=O)CCC4=C3[C@@H](c3ccc(N4CCOCC4)cc3)C[C@@]21C
9.6	> 2500	2.2	> 2500	11	50	6.7	4.4	7.2	59	123	CC(C)(C)C#C[C@]1(O)CC[C@H]2[C@@H]3CCC4=CC(=O)CCC4=C3[C@@H](c3ccc(C4(C)COC4)cc3)C[C@@]21C
1.93	> 2500	3.1	13	198							CC#C[C@]1(O)CC[C@H]2[C@@H]3CCC4=CC(=O)CCC4=C3[C@@H](c3ccc(C(C)C)cc3)C[C@@]21C
